Source: ChEMBL document CHEMBL5233249, “Recent advancements in the development of heterocyclic anti-inflammatory agents” (Eur J Med Chem, 2020)
Converted amounts (≈) assume the structure as drawn.

How the values were obtained:
Rattus norvegicus [1] = assay: Anti-inflammatory activity in Carrageenan-induced paw edema in Wistar albino rat assessed as inhibition of paw edema measured after 3 hr relative to control; assay type: functional
RAW264.7 [2] = assay: Anti-inflammatory activity in mouse RAW264.7 cells assessed as decreased production of LPS-induced TNFalpha production; assay type: functional; conditions: read-out: ED50 (the source's name)
RAW264.7 [3] = assay: Anti-inflammatory activity in mouse RAW264.7 cells assessed as decreased production of LPS-induced IL-1beta production; assay type: functional
[4] = molecular target: T1, Prostaglandin G/H synthase 2 (Homo sapiens, UniProt P35354); assay: Inhibition of COX-2 (unknown origin) at 0.1 uM
T1 sequence (P35354 whole entry): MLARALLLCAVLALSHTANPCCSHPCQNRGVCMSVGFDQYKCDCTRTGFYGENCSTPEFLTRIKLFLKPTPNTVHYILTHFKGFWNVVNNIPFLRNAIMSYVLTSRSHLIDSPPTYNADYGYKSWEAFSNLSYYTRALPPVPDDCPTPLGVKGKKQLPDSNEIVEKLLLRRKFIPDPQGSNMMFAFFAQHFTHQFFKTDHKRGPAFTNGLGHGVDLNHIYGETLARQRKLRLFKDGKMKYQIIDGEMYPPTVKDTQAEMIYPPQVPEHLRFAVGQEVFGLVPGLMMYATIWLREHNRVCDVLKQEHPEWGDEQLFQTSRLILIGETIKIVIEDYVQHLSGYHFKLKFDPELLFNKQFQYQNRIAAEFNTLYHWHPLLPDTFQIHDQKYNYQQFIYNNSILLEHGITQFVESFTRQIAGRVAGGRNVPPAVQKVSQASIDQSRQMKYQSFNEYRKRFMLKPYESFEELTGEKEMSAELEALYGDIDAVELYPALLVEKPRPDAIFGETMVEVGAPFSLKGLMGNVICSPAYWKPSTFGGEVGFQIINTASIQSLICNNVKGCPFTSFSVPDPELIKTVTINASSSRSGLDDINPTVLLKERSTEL

RAW264.7 [5] = assay: Anti-inflammatory activity in mouse RAW264.7 cells assessed as decreased production of LPS-induced IL-6 production; assay type: functional
Rattus norvegicus [6] = assay: Anti-inflammatory activity in Carrageenan-induced paw edema in Wistar albino rat assessed as inhibition of paw edema measured after 1 hr relative to control; assay type: functional
Rattus norvegicus [7] = assay: Anti-inflammatory activity in Carrageenan-induced paw edema in Wistar albino rat assessed as inhibition of paw edema measured after 6 hr relative to control; assay type: functional
RAW264.7 [8] = assay: Anti-inflammatory activity in mouse RAW264.7 cells assessed as inhibition of LPS-induced reduction in TNFalpha production; assay type: functional, cell-based
RAW264.7 [9] = assay: Anti-inflammatory activity in mouse RAW264.7 cells assessed as inhibition of LPS-induced TNFalpha production measured after 24 hrs by EIA method relative to control; assay type: functional; parameters: scale not given: the % may be the effect or the level left
BV-2 = assay: Antineuroinflammatory activity against mouse BV-2 cells assessed as inhibition of LPS-induced NO production by Griess assay relative to control; assay type: functional; parameters: scale not given: the % may be the effect or the level left
[10] = Cytotoxicity against mouse RAW264.7 cells assessed as decreased cell viability measured after 24 hrs by MTT assay; assay type: toxicity, cell-based

Row | EC50 (RAW264.7 [2]) [µg/mL] | IC50 [4] [µM] | IC50 (RAW264.7 [8]) [µM] | SMILES | inhibition (INH) (Rattus norvegicus [1]) [%] | Activity (RAW264.7 [3]) [ng/mL] | Activity (RAW264.7 [5]) [ng/mL] | inhibition (INH) (Rattus norvegicus [6]) [%] | inhibition (INH) (Rattus norvegicus [7]) [%] | Activity (RAW264.7 [9]) [%] | Activity (BV-2) [%] | CC50 at 24 h [10] [µM]
1 | 0.0559 (≈ 0.0744 µM) | 53.1 | – | COc1ccc(C2=NNC(S)C2N(CN2C(=O)/C(=C\c3nnc(-c4ccc(-c5ccc(OC)cc5)cc4)s3)c3ccccc32)C(=O)c2ccccc2)cc1 (stereo unspecified) | 52.63 | 35.1 | 102.1 | 50 | 57.14 | – | – | –
2 | – | – | 5.2 | CCc1ccc(C/C=C2\CCOc3cc(OC)cc(OC)c3C2=O)cc1 | – | – | – | – | – | 96.4 | 87.9 | 43.6
